Source: patent US20250171457A1, “NITROGEN-CONTAINING HETEROCYCLIC COMPOUND HAVING NRF2 ACTIVATION EFFECT” (CHUGAI SEIYAKU KABUSHIKI KAISHA, priority 2022, published 2025)

test system: Nrf2 transcriptional activity (pARE-Luc reporter) in HepG2 cells; assay: In vitro Nrf2 transcriptional activity measurement by ARE-dependent reporter assay in HepG2 cell; format: cell-based, human; conditions: Homo sapiens; HepG2 cells transfected with pARE-Luc, 4 hours at 37° C.; luciferase activity of Example 1-54 or Example 17-23 at 3.75 μM defined as 100%
Summary of the method: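 Luminescence readout (Bright-Glo) after 4 h, 37° C compound exposure of HepG2 cells carrying the ARE-luciferase vector pGL4.37. Each well converted to % response versus reference compound at 3.75 μM, and EC50 derived from dose-response curves.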

Row | EC50 | Compound
1 | 1.5 nM | O=C(O)c1cc(F)c(-c2cccc3c2OCN(C(=O)c2c(Cl)cc(N4CCN(C5COC5)CC4)cc2Cl)C3)cc1N1CCOCC1 [Compound 1-55, 4-[3-[2,6-Dichloro-4-[4-(oxetan-3-yl)piperazin-1-yl]benzoyl]-2,4-dihydro-1,3-benzoxazin-8-yl]-5-fluoro-2-morpholin-4-ylbenzoic acid]
2 | 1.3 nM | CN1CCN(c2cc(Cl)c(C(=O)N3COc4c(cccc4-c4cc(N5CCOCC5)c(C(=O)O)cc4F)C3)c(Cl)c2)CC1 [Compound 1-56]
3 | 1.4 nM | CC(C)(O)CN1CCN(c2cc(Cl)c(C(=O)N3COc4c(cccc4-c4cc(N5CCOCC5)c(C(=O)O)cc4F)C3)c(Cl)c2)CC1 [Compound 1-57, 4-[3-[2,6-Dichloro-4-[4-(2-hydroxy-2-methylpropyl)piperazin-1-yl]benzoyl]-2,4-dihydro-1,3-benzoxazin-8-yl]-5-fluoro-2-morpholin-4-ylbenzoic acid]
4 | 4.2 nM | O=C(O)c1cc(F)c(-c2cccc3c2OCN(C(=O)c2c(Cl)cc(N4CCN(CCO)CC4)cc2Cl)C3)cc1N1CCOCC1 [Compound 1-58, 4-[3-[2,6-Dichloro-4-[4-(2-hydroxyethyl)piperazin-1-yl]benzoyl]-2,4-dihydro-1,3-benzoxazin-8-yl]-5-fluoro-2-morpholin-4-ylbenzoic acid]
5 | 1.2 nM | O=C(O)c1cc(F)c(-c2cccc3c2OCN(C(=O)c2c(Cl)cc(N4CCOCC4)cc2Cl)C3)cc1N1CCOCC1 [Compound 1-59, 4-[3-(2,6-Dichloro-4-morpholin-4-ylbenzoyl)-2,4-dihydro-1,3-benzoxazin-8-yl]-5-fluoro-2-morpholin-4-ylbenzoic acid]
6 | 4.2 nM | CN1CCC(N2CCN(c3cc(Cl)c(C(=O)N4COc5c(cccc5-c5cc(N6CCOCC6)c(C(=O)O)cc5F)C4)c(Cl)c3)CC2)CC1 [Compound 1-60, 4-[3-[2,6-Dichloro-4-[4-(1-methylpiperidin-4-yl)piperazin-1-yl]benzoyl]-2,4-dihydro-1,3-benzoxazin-8-yl]-5-fluoro-2-morpholin-4-ylbenzoic acid]
7 | 2.7 nM | O=C(O)c1ccc(-c2cccc3c2OCN(C(=O)c2c(Cl)cc(N4CCN(C5COC5)CC4)cc2Cl)C3)cc1N1CCOCC1 [Compound 1-66, 4-[3-[2,6-Dichloro-4-[4-(oxetan-3-yl)piperazin-1-yl]benzoyl]-2,4-dihydro-1,3-benzoxazin-8-yl]-2-morpholin-4-ylbenzoic acid]
8 | 4.7 nM | O=C(O)c1cc(F)c(-c2cccc3c2OCN(C(=O)c2ccc(N4CCN(C5COC5)CC4)cc2Cl)C3)cc1N1CCOCC1 [Compound 1-70, 4-[3-[2-Chloro-4-[4-(oxetan-3-yl)piperazin-1-yl]benzoyl]-2,4-dihydro-1,3-benzoxazin-8-yl]-5-fluoro-2-morpholin-4-ylbenzoic acid]
9 | 5.8 nM | COc1cc(C(=O)N2COc3c(cccc3-c3cc(N4CCOCC4)c(C(=O)O)cc3F)C2)c(Cl)cc1N1CCN(C)CC1 [Compound 1-72, 4-[3-[2-Chloro-5-methoxy-4-(4-methylpiperazin-1-yl)benzoyl]-2,4-dihydro-1,3-benzoxazin-8-yl]-5-fluoro-2-morpholin-4-ylbenzoic acid]

Second part, the compound before the results:

Row | Compound | EC50
10 | O=C(O)c1ccc(-c2cccc3c2OCN(C(=O)c2c(Cl)cc(N4CC5(CCCO5)C4)cc2Cl)C3)cc1N1C2CCC1COC2 [Compound 1-61, 4-[3-[2,6-Dichloro-4-(5-oxa-2-azaspiro[3.4]octan-2-yl)benzoyl]-2,4-dihydro-1,3-benzoxazin-8-yl]-2-(3-oxa-8-azabicyclo[3.2.1]octan-8-yl)benzoic acid] | 2.6 nM
11 | CC(C)(O)CN1CCN(c2cc(Cl)c(C(=O)N3COc4c(cccc4-c4ccc(C(=O)O)c(N5CCOCC5)c4)C3)c(Cl)c2)CC1 [Compound 1-62, 4-[3-[2,6-Dichloro-4-[4-(2-hydroxy-2-methylpropyl)piperazin-1-yl)benzoyl]-2,4-dihydro-1,3-benzoxazin-8-yl]-2-morpholin-4-ylbenzoic acid] | 3.2 nM
12 | CN1CCC(N2CCN(c3cc(Cl)c(C(=O)N4COc5c(cccc5-c5ccc(C(=O)O)c(N6CCOCC6)c5)C4)c(Cl)c3)CC2)CC1 [Compound 1-63, 4-[3-[2,6-Dichloro-4-[4-(1-methylpiperidin-4-yl)piperazin-1-yl]benzoyl]-2,4-dihydro-1,3-benzoxazin-8-yl]-2-morpholin-4-ylbenzoic acid] | 2.1 nM
13 | CN1CCN(c2cc(Cl)c(C(=O)N3COc4c(cccc4-c4ccc(C(=O)O)c(N5CCOCC5)c4)C3)c(Cl)c2)CC1 [Compound 1-64, 4-[3-[2,6-Dichloro-4-(4-methylpiperazin-1-yl)benzoyl]-2,4-dihydro-1,3-benzoxazin-8-yl]-2-morpholin-4-ylbenzoic acid] | 3 nM
14 | O=C(O)c1ccc(-c2cccc3c2OCN(C(=O)c2c(Cl)cc(N4CCC(N5CCOCC5)CC4)cc2Cl)C3)cc1N1CCOCC1 [Compound 1-65, 4-[3-[2,6-Dichloro-4-(4-morpholin-4-ylpiperidin-1-yl)benzoyl]-2,4-dihydro-1,3-benzoxazin-8-yl]-2-morpholin-4-ylbenzoic acid] | 3.7 nM
15 | CC(C)N1CCN(c2cc(Cl)c(C(=O)N3COc4c(cccc4-c4ccc(C(=O)O)c(N5CCOCC5)c4)C3)c(Cl)c2)CC1 [Compound 1-67, 4-[3-[2,6-Dichloro-4-(4-propan-2-ylpiperazin-1-yl)benzoyl]-2,4-dihydro-1,3-benzoxazin-8-yl]-2-morpholin-4-ylbenzoic acid] | 4.4 nM
16 | CN1CCN(c2cc(Cl)c(C(=O)N3CSc4c(cccc4-c4cc(N5CCOCC5)c(C(=O)O)cc4F)C3)c(Cl)c2)CC1 [Compound 1-68, 4-[3-[2,6-Dichloro-4-(4-methylpiperazin-1-yl)benzoyl]-2,4-dihydro-1,3-benzothiazin-8-yl]-5-fluoro-2-morpholin-4-ylbenzoic acid] | 8.1 nM
17 | COCCN1CCN(c2cc(Cl)c(C(=O)N3CSc4c(cccc4-c4cc(N5CCOCC5)c(C(=O)O)cc4F)C3)c(Cl)c2)CC1 [Compound 1-69, 4-[3-[2,6-Dichloro-4-[4-(2-methoxyethyl)piperazin-1-yl]benzoyl]-2,4-dihydro-1,3-benzothiazin-8-yl]-5-fluoro-2-morpholin-4-ylbenzoic acid] | 5.4 nM
18 | COC1CN(c2cc(Cl)c(C(=O)N3COc4c(cccc4-c4cc(N5C6CCC5COC6)c(C(=O)O)cc4F)C3)cc2C)C1 [Compound 1-71, 4-[3-[2-Chloro-4-(3-methoxyazetidin-1-yl)-5-methylbenzoyl]-2,4-dihydro-1,3-benzoxazin-8-yl]-5-fluoro-2-(3-oxa-8-azabicyclo[3.2.1]octan-8-yl)benzoic acid] | 6.1 nM
19 | COc1cc(C(=O)N2COc3c(cccc3-c3cc(N4CCOCC4)c(C(=O)O)cc3F)C2)c(Cl)cc1N1CC2(COC2)C1 [Compound 1-73, 4-[3-[2-Chloro-5-methoxy-4-(2-oxa-6-azaspiro[3.3]heptan-6-yl)benzoyl]-2,4-dihydro-1,3-benzoxazin-8-yl]-5-fluoro-2-morpholin-4-ylbenzoic acid] | 5.1 nM
20 | COc1cc(C(=O)N2COc3c(cccc3-c3cc(N4C5CCC4COC5)c(C(=O)O)cc3F)C2)c(Cl)cc1N1CC(OC)C1 [Compound 1-74, 4-[3-[2-Chloro-5-methoxy-4-(3-methoxyazetidin-1-yl)benzoyl]-2,4-dihydro-1,3-benzoxazin-8-yl]-5-fluoro-2-(3-oxa-8-azabicyclo[3.2.1]octan-8-yl)benzoic acid] | 2.7 nM
